Measured values taken from patent US7855233B2 (Teva Pharmaceutical Industries, Ltd., priority 2009, dated 2010).
In brackets after ≈: the same amount, converted by molar mass. Structures can show the parent of a compound that is named as a salt. Where two headings read alike, the source gives them in different places.

Tests used:
[1] = cited from earlier work
[2] = Aqueous salt solutions held at +5° C.; assay type: physicochemical; settings: 15 hrs at +5° C.
Experimental: 3.02 g of Citric acid was dissolved in 4 ml deionized water. […] Exothermic effect was observed (temperature rose from 22 to 25° C.), and most of the solid was dissolved. Then the mixture was heated to 42° and complete dissolution of the solid was observed. The resulting clear viscous syrup-like solution was held in refrigerator at +5° C. overnight.
3.45 g of Citric acid was dissolved in 5 ml deionized water and pre-heated to 30° C. […] Exothermic effect was observed (temperature rose from 30 to 36° C.), and the solid was dissolved. The resulted clear viscous syrup-like solution was held in refrigerator at +5° C. overnight.
3.46 g of Citric acid was dissolved in 5 ml deionized water. […] Exothermic effect was observed (temperature rose from 22 to 27° C.), and most of the solid was dissolved. Then the mixture was heated to 46° C. 0.5 ml water was added and complete dissolution of the solid was observed. The resulting clear viscous syrup-like solution was held in refrigerator at +5° C. overnight.

[3] = Exposure of citrate salts to atmospheric air in open dishes at ambient temperature; assay type: physicochemical; settings: for Changes on exposure to atmosphere (appearance): ambient temperature, open dish
Description: (§1) The changes were observed and recorded.

[4] = Storage of citrate salts in sealed glass vials in refrigerator; assay type: physicochemical; settings: 7±2° C., sealed vial
Description: as §1

[5] = Free rasagiline base in citrate salt preparations (toluene extraction, TLC, pH); settings: for Content of extractable base (toluene) % on total base content: by ratio base to acid mole:mole
[6] = from references, cited from earlier work
[7] = physchem; settings: water
[8] = target: B-form of the enzyme monoamine oxidase (“MAO-B”) (Homo sapiens, UniProt P27338); settings: reported in prior patents; cited from earlier work
B-form of the enzyme monoamine oxidase (“MAO-B”), sequence (P27338 whole entry, species assumed): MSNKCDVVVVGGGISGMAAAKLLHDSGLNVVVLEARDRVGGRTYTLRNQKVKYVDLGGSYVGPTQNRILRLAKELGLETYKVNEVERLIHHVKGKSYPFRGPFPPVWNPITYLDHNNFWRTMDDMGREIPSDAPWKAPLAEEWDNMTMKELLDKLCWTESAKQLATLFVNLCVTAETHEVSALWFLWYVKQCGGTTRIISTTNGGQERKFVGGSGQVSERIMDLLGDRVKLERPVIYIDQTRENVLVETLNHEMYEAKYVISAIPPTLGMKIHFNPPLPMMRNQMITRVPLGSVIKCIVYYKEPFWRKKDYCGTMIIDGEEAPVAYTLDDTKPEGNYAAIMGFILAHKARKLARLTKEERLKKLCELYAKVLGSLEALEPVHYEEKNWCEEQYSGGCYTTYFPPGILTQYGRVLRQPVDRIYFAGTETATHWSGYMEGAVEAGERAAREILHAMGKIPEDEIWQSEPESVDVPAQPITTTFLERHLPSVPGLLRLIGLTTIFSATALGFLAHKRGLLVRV

[9] = Aqueous / water solubility; settings: aqueous citric acid reaction solution

Tosylate
Water solubility ([1]; Table 8c, from references): 60000 to 70000 µg/mL

C#CCN[C@@H]1CCc2ccccc21.C#CCN[C@@H]1CCc2ccccc21.C#CCN[C@@H]1CCc2ccccc21.O=C(O)CC(O)(CC(=O)O)C(=O)O [Example 4d]
precipitation from solution [2]: No precipitation | Changes on exposure to atmosphere (appearance) ([3]; 0:00 hrs:min): Powder | Changes on exposure to atmosphere (appearance) ([3]; 0:30 hrs:min): Powder | Changes on exposure to atmosphere (appearance) ([3]; 5:00 hrs:min): Semi-solid | Changes on exposure to atmosphere (appearance) ([3]; 6:00 hrs:min): Semi-solid | Appearance stored in refrigerator ([4]; 0 month): White powder | Appearance stored in refrigerator ([4]; 3 months): White powder | Appearance stored in refrigerator ([4]; 6 months): White powder

C#CCN[C@@H]1CCc2ccccc21.O=C(O)CC(O)(CC(=O)O)C(=O)O [Example 5.1]
Extracted R-PAI (%) ([5]; free base extracted with toluene, solvent and citric acid:base mole proportions per example): 0.06 g-1.75%

rasagiline citrate
hygroscopicity (in words) ([3]; exposed to air/humidity at ambient temperature): highest hygroscopicity

C#CCN[C@@H]1CCc2ccccc21.C#CCN[C@@H]1CCc2ccccc21.O=C(O)CC(O)(CC(=O)O)C(=O)O [Example 4c]
precipitation from solution [2]: No precipitation | Changes on exposure to atmosphere (appearance) ([3]; 0:00 hrs:min): Powder | Changes on exposure to atmosphere (appearance) ([3]; 0:50-1:00 hrs:min): Powder | Changes on exposure to atmosphere (appearance) ([3]; 0:30 hrs:min): Powder | Changes on exposure to atmosphere (appearance) ([3]; 1:50-2:00 hrs:min): Powder | Changes on exposure to atmosphere (appearance) ([3]; 5:00 hrs:min): Lump powder | Appearance stored in refrigerator ([4]; 0 month): White powder | Appearance stored in refrigerator ([4]; 3 months): White powder | Appearance stored in refrigerator ([4]; 6 months): White powder

C#CCN[C@@H]1CCc2ccccc21 [Rasagiline, R(+)-N-propargyl-1-aminoindan]
Hygroscopicity by KF ([6]; Table 8b): Not hygroscopic | solubility [7]: ~2000 µg/mL (≈ 11.7 mM) | inhibition of MAO-B [8]: selective inhibitor | dissolves in aqueous reaction solution [9]: more than 10 wt %

C#CCN[C@@H]1CCc2ccccc21.O=C(O)CC(O)(CC(=O)O)C(=O)O [Example 4b]
precipitation from solution [2]: No precipitation | Changes on exposure to atmosphere (appearance) ([3]; 0:00 hrs:min): Powder | Changes on exposure to atmosphere (appearance) ([3]; 1:50-2:00 hrs:min): Semi-solid | Changes on exposure to atmosphere (appearance) ([3]; 6:00 hrs:min): Syrup | Changes on exposure to atmosphere (appearance) ([3]; 7:00 hrs:min): Syrup | Appearance stored in refrigerator ([4]; 0 month): White powder | Appearance stored in refrigerator ([4]; 3 months): White powder | Appearance stored in refrigerator ([4]; 6 months): White powder

C#CCNC1CCc2ccccc21.C#CCNC1CCc2ccccc21.O=C(O)CC(O)(CC(=O)O)C(=O)O (stereo not drawn) [Di-citrate, di-rasagiline citrate]
Content of extractable base (toluene) % on total base content [5]: 22.0%

Cl [Chloride]
Hygroscopicity by KF ([6]; Table 8c): Not hygroscopic

C#CCN[C@@H]1CCc2ccccc21 [Mesylate, Rasagiline mesylate]
Hygroscopicity by KF ([6]; Table 8c): Not hygroscopic

C#CCN[C@@H]1CCc2ccccc21.O=C(O)CC(O)(CC(=O)O)C(=O)O [Mono-citrate, mono-rasagiline citrate]
Content of extractable base (toluene) % on total base content [5]: 1.75-3.6%

rasagiline maleate
Water solubility (mg/ml) ([1]; Table 8c, from references): >=1000 mg/ml | solubility ([1]; as described in U.S. Pat. No. 6,630,514): not less than 1000 mg/ml water

C#CCN[C@@H]1CCc2ccccc21.C#CCN[C@@H]1CCc2ccccc21.O=S(=O)(O)CCS(=O)(=O)O [Edisilate]
Hygroscopicity by KF ([6]; Table 8c): Not hygroscopic

Oxalate
Hygroscopicity by KF ([6]; Table 8c): Not hygroscopic

O=C(O)CC(O)(CC(=O)O)C(=O)O [Citric Acid, Citric acid]
Hygroscopicity by KF ([6]; Table 8b): low

C#CCNC1CCc2ccccc21.C#CCNC1CCc2ccccc21.C#CCNC1CCc2ccccc21.O=C(O)CC(O)(CC(=O)O)C(=O)O (stereo not drawn) [Tri-citrate, tri-rasagiline citrate]
Content of extractable base (toluene) % on total base content [5]: 42.7%
